The compounds below were run against STING (Homo sapiens, UniProt Q86WV6) (assay: STING antagonist activity, cell-based ISG54 promoter-reporter luciferase measurement of IRF activity (THP-1 dual / RAW-ISG cells)). Conditions: Antagonist Activity of Exemplary Compounds; cell line and agonist not given.
STING, sequence (Q86WV6 whole entry): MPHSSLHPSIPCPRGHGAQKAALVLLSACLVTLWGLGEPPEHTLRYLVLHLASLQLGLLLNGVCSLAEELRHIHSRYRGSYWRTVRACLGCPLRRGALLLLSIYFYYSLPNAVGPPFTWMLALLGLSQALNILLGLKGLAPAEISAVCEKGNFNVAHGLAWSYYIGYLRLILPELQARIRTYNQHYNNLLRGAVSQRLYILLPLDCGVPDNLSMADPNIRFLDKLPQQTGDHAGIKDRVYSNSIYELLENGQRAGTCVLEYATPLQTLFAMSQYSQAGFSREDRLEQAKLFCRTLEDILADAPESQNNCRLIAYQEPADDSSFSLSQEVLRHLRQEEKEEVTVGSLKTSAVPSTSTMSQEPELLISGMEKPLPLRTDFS
Method: THP-1 dual cells (InvivoGen) were cultured under 5% CO2 at 37° C. in RPMI containing 10% fetal bovine serum (FBS), 100 IU mL-1 penicillin and 100 μg mL-1 streptomycin. RAW-ISG cells (InvivoGen) were cultured under 5% CO2 at 37° C. in DMEM containing 10% fetal bovine serum (FBS), 100 IU mL-1 penicillin and 100 μg mL-1 streptomycin. THP-1 dual cells were seeded into the 96 well assay plate on the day of assay whereas RAW cells were seeded into the 96 well assay plate 18 hours before the assay.
(§1) 50,000 cells seeded in a 96-well flat bottom white assay plate were treated with different concentrations (10 uM to 0.01 uM) of compounds for 1 h followed by STING induction with either 30 nM SB 11285 or 10 ug/mL 2′-3′ cGAMP. The cells were then incubated for 20 hours @ 37° C. in CO2 incubator before measuring IRF activation by using Quanti-Luc (InvivoGen). The % inhibition was calculated as 100−{[(luminescence of COI treated well/luminescence of non-COI treated well)/100]×100}. IC50 was calculated by plotting in Xlfit.
as §1, with “1 μM” for “30 nM”
THP1-Dual-WT cells (InvivoGen) were plated into 96-well flat bottom plate at 5×10^4 cells/140 μL/well in triplicate. Cells were then treated with diluted antagonist compounds at 10 μL/well for 1 h, followed by treatment with compounds or 2′3′-cGAMP/lipo mixture for 18 h. The levels of IRF activity were determined using Quanti-luc (InvivoGen) and calculated against IRF activity in DMSO-treated cells. IC50 and CC50 values were calculated using Xlfit.
For N#CCCOP(O)(=S)OCCCCCCCCCCCCCCCCn1cnc2nc(Cl)nc(Cl)c21 (stereo not drawn) [Compound 90, O-(2-cyanoethyl)O-(16-(2,6-dichloro-7H-purin-7-yl)hexadecyl) O-hydrogen phosphorothioate], the IC50 was 5000 to 10000 nM.

Same assay, conditions: Antagonist Activity of Exemplary Compounds; cell line and agonist not given; read-out: IC50
Work on Clc1nc(Cl)c2c(ncn2CCCCn2cnc3nc(Cl)nc(Cl)c32)n1 [Compound 55, 1,4-bis(2,6-dichloro-7H-purin-7-yl)butane] yielded an IC50 of 5000 to 10000 nM. COC(=O)C(C)(C)n1cnc2nc(Cl)nc(Cl)c21 [Compound 56, methyl 2-(2,6-dichloro-7H-purin-7-yl)-2-methylpropanoate] was tested, and the IC50 was > 20000 nM. For COC(=O)C(CCC(C(=O)OC)n1cnc2nc(Cl)nc(Cl)c21)n1cnc2nc(Cl)nc(Cl)c21 (stereo not drawn) [Compound 57, dimethyl 2,5-bis(2,6-dichloro-7H-purin-7-yl)hexanedioate], the IC50 was 1000 to 5000 nM. With Clc1nc(Cl)c2c(ncn2C/C=C\Cn2cnc3nc(Cl)nc(Cl)c32)n1 [Compound 58, (Z)-1,4-bis(2,6-dichloro-7H-purin-7-yl)but-2-ene] the IC50 was > 20000 nM. For Cc1nc2nc(Cl)nc(Cl)c2n1CCCCCCCCCCCCn1c(C)nc2nc(Cl)nc(Cl)c21 [Compound 59, 1,12-bis(2,6-dichloro-8-methyl-7H-purin-7-yl)dodecane], the IC50 was 1 to 1000 nM. For COC(=O)CCCCn1c(C)nc2nc(Cl)nc(Cl)c21 [Compound 60, methyl 5-(2,6-dichloro-8-methyl-7H-purin-7-yl)pentanoate], the IC50 was 5000 to 10000 nM. In the case of Cc1nc2nc(Cl)nc(Cl)c2n1CCCCCCCCCCn1c(C)nc2nc(Cl)nc(Cl)c21 [Compound 61, 1,10-bis(2,6-dichloro-8-methyl-7H-purin-7-yl)decane], the IC50 is reported as 1 to 1000 nM. Cc1nc2nc(Cl)nc(Cl)c2n1CCCCCCO [Compound 62, 6-(2,6-dichloro-8-methyl-7H-purin-7-yl)hexan-1-ol] was tested, and the IC50 was 1000 to 5000 nM. Cc1nc2nc(Cl)nc(Cl)c2n1CCCCCCCCn1c(C)nc2nc(Cl)nc(Cl)c21 [Compound 63, 1,8-bis(2,6-dichloro-8-methyl-7H-purin-7-yl)octane] was tested, and the IC50 was 1 to 1000 nM. With Cc1nc2nc(Cl)nc(Cl)c2n1CCCCn1c(C)nc2nc(Cl)nc(Cl)c21 [Compound 64, 1,4-bis(2,6-dichloro-8-methyl-7H-purin-7-yl)butane] the IC50 was > 20000 nM. With Cc1nc2nc(Cl)nc(Cl)c2n1CCCCCCCl [Compound 65, 2,6-dichloro-7-(6-chlorohexyl)-8-methyl-7H-purine] the IC50 was 1000 to 5000 nM. Compound COC(=O)Cn1c(C)nc2nc(Cl)nc(Cl)c21 [Compound 66, methyl 2-(2,6-dichloro-8-methyl-7H-purin-7-yl)acetate] has an IC50 of 1000 to 5000 nM. COc1ccc(Cn2c(C)nc3nc(Cl)nc(Cl)c32)cc1 [Compound 67, 2,6-dichloro-7-(4-methoxybenzyl)-8-methyl-7H-purine] was tested, and the IC50 was 1000 to 5000 nM. CC(=O)N1CCC(Cn2cnc3nc(Cl)nc(Cl)c32)CC1 [Compound 68, 1-(4-((2,6-dichloro-7H-purin-7-yl)methyl)piperidin-1-yl)ethan-1-one] showed an IC50 of 5000 to 10000 nM. With COC(=O)CCCCCCCCCCCCCCCn1c(C)nc2nc(Cl)nc(S(C)(=O)=O)c21 [Compound 69, methyl 16-(2-chloro-8-methyl-6-(methylsulfonyl)-7H-purin-7-yl)hexadecanoate] the IC50 was 1 to 1000 nM. COC(=O)CCCCCCCCCCCCCCCn1c(C#CC2CC2)nc2nc(Cl)nc(Cl)c21 [Compound 70, methyl 16-(2,6-dichloro-8-(cyclopropylethynyl)-7H-purin-7-yl)hexadecanoate] was tested, and the IC50 was 1000 to 5000 nM. COC(=O)CCCCCCCCCCCCCCCn1c(-c2ccccc2)nc2nc(Cl)nc(Cl)c21 [Compound 71, methyl 16-(2,6-dichloro-8-phenyl-7H-purin-7-yl)hexadecanoate] gave an IC50 of 1000 to 5000 nM. In the case of Cc1nc2nc(Cl)nc(Cl)c2n1CCCCCCCCCCCCCCCC(=O)O [Compound 72, 16-(2,6-dichloro-8-methyl-7H-purin-7-yl)hexadecanoic acid], the IC50 is reported as 10000 to 20000 nM. COC(=O)CCCCCCCCCCCCCCCn1c(C)nc2nc(Cl)nc(S(=O)(=O)C(C)C)c21 [Compound 74, methyl 16-(2-chloro-6-(isopropylsulfonyl)-8-methyl-7H-purin-7-yl)hexadecanoate] showed an IC50 of 1 to 1000 nM. Work on Cc1nc2nc(Cl)nc(Cl)c2n1CCCCCCCCCCCCCCCCO [Compound 75] yielded an IC50 of 1 to 1000 nM. With Cc1nc2c(Cl)nc(Cl)nc2n1CCCCCCCCCCCCCCCCO [Compound 76, 16-(2,6-dichloro-8-methyl-9H-purin-9-yl)hexadecan-1-ol] the IC50 was 5000 to 10000 nM. Work on CCCCCCCCCCCCCCCCn1c(C)nc2nc(Cl)nc(Cl)c21 [Compound 77, 2,6-dichloro-7-hexadecyl-8-methyl-7H-purine] yielded an IC50 of 1 to 1000 nM. Compound CCOC(=O)CCCCCCCCCCCCCCCn1c(C)nc2nc(Cl)nc(Cl)c21 [Compound 78, ethyl 16-(2,6-dichloro-8-methyl-7H-purin-7-yl)hexadecanoate] has an IC50 of 1 to 1000 nM. Cc1nc2nc(Cl)nc(Cl)c2n1CCCCCCCCCCCCCCCC(=O)OC(C)C [Compound 79, isopropyl 16-(2,6-dichloro-8-methyl-7H-purin-7-yl)hexadecanoate] gave an IC50 of 1 to 1000 nM. In the case of COC(=O)CCCC(=O)N1CNc2nc(Cl)nc(Cl)c21 [Compound 80, methyl 5-(2,6-dichloro-8,9-dihydro-7H-purin-7-yl)-5-oxopentanoate], the IC50 is reported as > 20000 nM. Cc1nc2nc(Cl)nc(Cl)c2n1CCCCCCCCCCCCCCCC(=O)OC(C)(C)C [Compound 81, tert-butyl 16-(2,6-dichloro-8-methyl-7H-purin-7-yl)hexadecanoate] was tested, and the IC50 was 1000 to 5000 nM. Cc1nc2nc(Cl)nc(Cl)c2n1C [Compound 82, 2,6-dichloro-7,8-dimethyl-7H-purine] showed an IC50 of 5000 to 10000 nM. For Cc1nc2c(Cl)nc(Cl)nc2n1C [Compound 83, 2,6-dichloro-8,9-dimethyl-9H-purine], the IC50 was > 20000 nM. For Cc1nc2nc(Cl)nc(Cl)c2n1CCCCCCCCCCCCCCCC(=O)OCCO [Compound 84, 2-hydroxyethyl 16-(2,6-dichloro-8-methyl-7H-purin-7-yl)hexadecanoate], the IC50 was 1000 to 5000 nM. For Cc1nc2nc(Cl)nc(Cl)c2n1CCCCCCCCCCCCCCCC(=O)OCC(O)CO (stereo not drawn) [Compound 85, 2,3-dihydroxypropyl 16-(2,6-dichloro-8-methyl-7H-purin-7-yl)hexadecanoate], the IC50 was 1000 to 5000 nM. Cc1nc2nc(Cl)nc(Cl)c2n1CCCCCCCCCCCCCCCC(=O)N1CCNCC1 [Compound 87, 16-(2,6-dichloro-8-methyl-7H-purin-7-yl)-1-(piperazin-1-yl)hexadecan-1-one] was tested, and the IC50 was 10000 to 20000 nM. O=P(O)(O)OCCCCCCCCCCCCCCCCn1cnc2nc(Cl)nc(Cl)c21 [Compound 88, 16-(2,6-dichloro-7H-purin-7-yl)hexadecyl dihydrogen phosphate] was tested, and the IC50 was > 20000 nM. COC(=O)CCCCCCCCCCCCCCCn1c(C(C)C)nc2nc(Cl)nc(Cl)c21 [Compound 89, methyl 16-(2,6-dichloro-8-isopropyl-7H-purin-7-yl)hexadecanoate] showed an IC50 of 1 to 1000 nM. COC(=O)CCCCCCCCCCCCCCCn1c(CCl)nc2nc(Cl)nc(Cl)c21 [Compound 91, Methyl 16-(2,6-dichloro-8-(chloromethyl)-7H-purin-7-yl)hexadecanoate] was tested, and the IC50 was 1 to 1000 nM. For COCc1nc2nc(Cl)nc(Cl)c2n1CCCCCCCCCCCCCCCC(=O)OC [Compound 92, Methyl 16-(2,6-dichloro-8-(methoxymethyl)-7H-purin-7-yl)hexadecanoate], the IC50 was 1 to 1000 nM. For COC(=O)CCCCCCCCCCCCCCCn1c(CO)nc2nc(Cl)nc(Cl)c21 [Compound 93, Methyl 16-(2,6-dichloro-8-(hydroxymethyl)-7H-purin-7-yl)hexadecanoate], the IC50 was 1 to 1000 nM. For CNC(=O)CCCCCCCCCCCCCCCn1c(C)nc2nc(Cl)nc(Cl)c21 [Compound 94, 16-(2,6-dichloro-8-methyl-7H-purin-7yl)-N-methylhexadecanamide], the IC50 was 1 to 1000 nM. Compound Cc1nc2nc(Cl)nc(S(=O)(=O)C(C)C)c2n1CCCCCCCCCCCCCCCC(=O)OC(C)C [Compound 96, isopropyl 16-(2-chloro-6-(isopropylsulfonyl)-8-methyl-7H-purin-7-yl)hexadecanoate] has an IC50 of 1 to 1000 nM. With CCCCCCCCCCCCCCCCn1c(C)nc2nc(Cl)nc(S(=O)(=O)C(C)C)c21 [Compound 97, 2-chloro-7-hexadecyl-6-(isopropylsulfonyl)-8-methyl-7H-purine] the IC50 was 1 to 1000 nM. Cc1nc2nc(Cl)nc(Cl)c2n1CCCCCCCCCCCCCCCC(=O)OCC(C)O (stereo not drawn) [Compound 98, 2-hydroxypropyl 16-(2,6-dichloro-8-methyl-7H-purin-7-yl)hexadecanoate] showed an IC50 of 1000 to 5000 nM. CCOCCOCCOC(=O)CCCCCCCCCCCCCCCn1c(C)nc2nc(Cl)nc(Cl)c21 [Compound 99, 2-(2-ethoxyethoxy)ethyl 16-(2,6-dichloro-8-methyl-7H-purin-7-yl)hexadecanoate] showed an IC50 of 1000 to 5000 nM.
